Experiments:
[1] = test system: S. aureus NRS144pCN52RI-Venus; experiment: Bacterial growth inhibition (OD600) in the fluorescent screening assay; format: cell-based, Staphylococcus aureus; details: compound at 100 mg/L^−1; OD600 after 2 h
Experimental: (§1) The collection of the 100 compounds from the in-silico search was screened against S. aureus NRS144pCN52RI-Venus. The screening strategy was as follows. Bacteria grown to OD600 of 0.25 were exposed concurrently to CBAP (10 mg·L^−1) and the test compound (100 mg·L^−1). Fluorescence was recorded after two hours of incubation. OD600 values were also recorded to identify compounds with inherent antibacterial activity. Compound 1 (Chart 1) emerged—82% diminished fluorescence as an indication of the extent of BlaR inhibition—as a suitable template for structure elaboration. This effort led to the synthesis of several dozen benzimidazole and imidazole compounds. The progression of the iterative design is depicted in Chart 1 for four compounds, culminating in 4. […] The X-ray structures for the complexes of compounds 2 (non-covalent) and 4 (covalent) with the BlaR sensor domain are shown respectively in FIG. 2b (2.0 Å resolution) and FIG. 2c (1.97 Å resolution). Compound 4 makes a covalent bond with the catalytic Ser389 and creates a network of hydrogen bonds with the BlaR active site (FIG. 2c).
(§2) Fluorescent assay for screening of BlaR potential inhibitors. A 3-mL portion of lysogeny broth (LB) medium was inoculated with NRS144pCN52RI Venus from frozen stocks and grown overnight at 37° C. The overnight culture was then diluted 1:150 fold with fresh LB containing […] of erythromycin and incubated at 37° C. to an OD600 of 0.3, at which point fluorescence was induced by the addition of CBAP to a final concentration of 10 μg·mL^−1. The culture was aliquoted (99 L) into 96-well plate and 1 L of inhibitor solution (1 mg·mL^−1 in DMSO) was added to each well. Negative control (DMSO without CBAP) and positive control (CBAP without inhibitor) were included. The plate was incubated at 30° C. for 2 h with intermittent shaking. Fluorescence and OD600 measurements were taken by a Cytation-5 multimode microplate reader. Percent inhibition of BlaR and bacterial growth were calculated using absorbance unit (AU) and OD600 values of each sample entered into this formula: […]

BlaR = BlaR (Staphylococcus aureus, UniProt P18357); experiment: Live-cell fluorescent assay for BlaR inhibition (Venus reporter); format: cell-based, S. aureus NRS144pCN52RI-Venus; details: compound at 100 mg/L^−1; CBAP 10 mg·L^−1; fluorescence after 2 h
BlaR, sequence (P18357 whole entry): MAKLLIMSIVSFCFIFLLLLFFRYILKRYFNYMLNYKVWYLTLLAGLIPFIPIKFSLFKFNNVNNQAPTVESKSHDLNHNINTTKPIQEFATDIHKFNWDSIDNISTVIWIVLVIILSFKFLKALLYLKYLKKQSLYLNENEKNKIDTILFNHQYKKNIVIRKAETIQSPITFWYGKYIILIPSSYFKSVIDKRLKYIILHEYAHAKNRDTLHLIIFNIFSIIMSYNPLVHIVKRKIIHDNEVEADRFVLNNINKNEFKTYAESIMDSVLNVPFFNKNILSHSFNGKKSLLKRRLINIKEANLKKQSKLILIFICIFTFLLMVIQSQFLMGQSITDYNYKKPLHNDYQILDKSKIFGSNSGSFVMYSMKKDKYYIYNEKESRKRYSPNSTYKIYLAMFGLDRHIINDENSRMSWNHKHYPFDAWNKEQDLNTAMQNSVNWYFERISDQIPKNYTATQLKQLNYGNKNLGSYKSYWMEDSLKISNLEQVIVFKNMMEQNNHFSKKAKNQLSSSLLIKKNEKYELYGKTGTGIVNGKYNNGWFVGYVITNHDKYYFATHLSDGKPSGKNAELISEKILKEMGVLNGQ
Text: Live-Cell Fluorescent Assay in Discovery and Mechanism of Action. We conceived of fluorescent constructs in the bla operon, for the purpose of screening (FIG. 2a). We removed the gene for the β-lactamase (blaZ) and put in its place individually the genes for the Green Fluorescent Protein (GFP), Venus (a yellow-fluorescent protein) or mCherry (a red-fluorescent protein) in the template plasmid pCN52. The three plasmids were named pCN52RI, pCN52RI-Venus and pCN52RI-mCherry, respectively. The genes for the fluorescent proteins were transcribed under the promoter of the blaZ gene and were regulated by the proteins BlaR and BlaI, as is the case for the wild-type bla operon.
We transformed separately S. aureus NRS144—a laboratory strain that accepts a foreign gene and harbors neither the bla nor the mec operons—with each of these plasmids. […] When induced, the fluorescent protein is produced and is detected (akin to expression of the resistance genes blaZ or mecA in typical MSSA and MRSA). […] The transformed strains were grown in tryptic soy broth medium for overnight culture and strain maintenance and incubated in cation-adjusted Mueller-Hinton broth medium for inhibitor screening in a 96-well microplate format. The culture without CBAP addition was the negative control. In order to select a desirable reporter construct, we compared the intensity of the fluorescence produced from each construct at the wavelengths given in FIG. 2a using the Cytation-5 multi-mode microplate reader. Among the three constructs, pCN52RI-Venus produced the best fluorescence intensity and pCN52RI-mCherry was the second best (FIG. 4).
as §1, §2

Compound	% Inhibition of bacterial growth [1]	% Inhibition of BlaR (BlaR) [%]
CC(=O)NCc1ccc2nc(S)n(Cc3ccc(C(F)(F)F)cc3C(F)(F)F)c2c1	0%	70
OC[C@@H](O)[C@H](O)[C@H](O)c1cn(Cc2ccccc2)c(=S)[nH]1	0%	13
OC[C@@H](O)[C@@H](O)c1cn(Cc2ccccc2)c(=S)[nH]1	0%	11
O=S(=O)(O)c1nc2ccccc2n1Cc1ccc(C(F)(F)F)cc1C(F)(F)F [Compound 1, 1-[[2,4-Bis(trifluoromethyl)phenyl]methyl]benzimidazole-2-sulfonic acid]	0%	82
OCc1cn(Cc2ccc(C(F)(F)F)cc2C(F)(F)F)c(=S)[nH]1 [Compound 2, 4-(Hydroxymethyl)-1-[[2,4-bis(trifluoromethyl)phenyl]methyl]-2H-imidazole-2-thione]	0%	92
OB(O)CSc1nc2ccccc2n1Cc1ccc(C(F)(F)F)cc1C(F)(F)F [Compound 3]	20%	98
FC(F)(F)c1ccc(Cn2c(=S)[nH]c3ccccc32)c(C(F)(F)F)c1 [Compound 8, 1-[[2,4-Bis(trifluoromethyl)phenyl]methyl]benzimidazole-2-thione]	10%	65
N#Cc1ccc2c(c1)[nH]c(=S)n2Cc1ccc(C(F)(F)F)cc1C(F)(F)F [Compound 9, 1-[2,4-bis(trifluoromethyl)benzyl]-5-nitrile-benzimidazole-2-thione]	97%	–
O=S(=O)(O)c1nc2ccccc2n1Cc1ccc(F)cc1C(F)(F)F [Compound 11]	0%	78
O=S(=O)(O)c1nc2ccccc2n1Cc1ccc(Cl)cc1 [Compound 12]	0%	72
O=S(=O)(O)c1nc2ccccc2n1Cc1ccccc1C(F)(F)F [Compound 13]	0%	69
NCc1ccc2nc(S)n(Cc3ccc(C(F)(F)F)cc3C(F)(F)F)c2c1 [Compound 14]	0%	60
COC(=O)c1ccc2nc(S)n(Cc3ccc(C(F)(F)F)cc3C(F)(F)F)c2c1 [Compound 15]	0%	10
COC(=O)c1ccc2nc(S(=O)(=O)O)n(Cc3ccc(C(F)(F)F)cc3C(F)(F)F)c2c1 [Compound 16]	0%	20
OCc1ccc2nc(S)n(Cc3ccc(C(F)(F)F)cc3C(F)(F)F)c2c1 [Compound 17]	99%	0
COC(=O)c1ccc2nc(N)n(Cc3ccc(C(F)(F)F)cc3C(F)(F)F)c2c1 [Compound 20]	0%	–
O=C(/C=C/c1ccc(F)cc1)NCc1ccc2nc(S(=O)(=O)O)n(Cc3ccc(C(F)(F)F)cc3C(F)(F)F)c2c1 [Compound 24]	24, R^4 = F, R^5 = H, X = SO3H, 100; 100%	–
C[N+]12CC(=O)O[B-]1(CSc1nc3ccccc3n1Cc1ccc(C(F)(F)F)cc1C(F)(F)F)OC(=O)C2 (stereo not drawn) [Compound 31, (T-4)-[N-[(Carboxy-κO)methyl]-N-methylglycinato(2-)-κN,κO][[N^1-[[2,4-bis(trifluoromethyl)phenyl]methyl]-1H-benzimidazole-1-yl]thiomethyl]boron]	13%	–
OCCc1nc2ccccc2n1Cc1ccc(C(F)(F)F)cc1C(F)(F)F [Compound 44]	40%	–
CC(C)(C)OC(=O)NCc1cn(Cc2ccc(C(F)(F)F)cc2C(F)(F)F)c(=S)[nH]1 [Compound 47]	0%	–
NS(=O)(=O)c1nc([C@H](O)[C@H](O)CO)cn1Cc1ccccc1 [Compound 53]	49%	–
O=S(=O)(F)c1nc(CO)cn1Cc1ccc(C(F)(F)F)cc1C(F)(F)F [Compound 59]	83%	–

Reference: patent US20260284011A1, “COMPOUNDS FOR RESTORING SUSCEPTIBILITY TO BETA-LACTAM ANTIBIOTICS” (UNIVERSITY OF NOTRE DAME DU LAC, priority 2023, published 2026)
